Experimental data as given in patent US20120270935A1, “FORMULATIONS” (priority 2009, published 2012).

Tests used:
S. aureus ATCC 29213 [1] = assay: MIC assay; assay type: cell-based, Staphylococcus aureus; details: Mueller-Hinton broth pH 7.0
Text: (§1) (a) staphylococci. The Staphylococcus aureus strain used was ATCC 29213. S. aureus and other staphylococci are common causes of a wide range of skin, skin structure and wound infections; S. aureus is also known to exacerbate eczema. The ATCC 29213 strain is known to be susceptible to beta-lactam antibiotics such as methicillin. The Staphylococcus epidermidis strain used was NCTC 11047. Staph. epidermidis forms part of the resident flora of skin and is an opportunistic pathogen which can cause biofilms to grow for instance on plastic surgical implants such as catheters. Unless otherwise stated, the staphylococci were cultured and maintained on Mueller-Hinton Medium (agar and broth) at pH 7.2; cultures were incubated aerobically at 37° C. for 19-20 hours, at pH 7 (±0.2). (b) C. striatum NCTC 764. Corynebacterium striatum is closely related to organisms (aerobic diphtheroids of the genus Corynebacterium) that cause body odour. It was cultured and maintained on Mueller-Hinton medium (agar and broth). All cultures were incubated aerobically at 37° C. for 72 hours, at pH 7 (±0.2). (c) streptococci. The strains tested were S. mutans ATCC 25175 and S. pyogenes ATCC 12344. S. mutans is a Gram-positive, microaerophilic bacterium which plays a significant role in dental caries and in infective endocarditis. […]
(§2) This is a standard international method for quantitatively assessing the antimicrobial activity of a compound in a liquid medium. […]
(§3) The wells were inoculated with a liquid suspension of freshly grown micro-organism and incubated under the conditions described above. […] The MIC value was recorded as the lowest concentration of test compound required to inhibit microbial growth, ie the lowest concentration for which the liquid in the well remained clear. […]
(§4) Example 8 was repeated (except for the supplemented DDA assays), using S. aureus ATCC 29213 as the test organism. […] In the DDA assays, 200 μg is of each compound was loaded onto each disc: the culture medium was Mueller-Hinton agar at pH 7.0, and results were recorded after overnight incubation at 37° C. in air. […]

S. aureus ATCC 29213 [2] = assay: Disc diffusion assay (DDA); assay type: cell-based, Staphylococcus aureus; details: 200 μg per disc; Mueller-Hinton agar pH 7.0; overnight at 37° C. in air
Text: as §1, with “endocarditis. Streptococcus pyogenes is associated with skin, soft tissue, burn and wound infections.” for “endocarditis.”
(§5) A sterile paper disc was impregnated with a sample of the test compound in a suitable solvent and 30 minutes allowed for the solvents to evaporate (where possible). […] The diameter of this zone of “inhibition” was measured using a ProtoCOL™ automated zone sizer (Synbiosis, Cambridge, UK). […]
as §4

P. acnes NCTC 737 [3] = assay: Minimum inhibitory concentration (MIC) assay, broth microtitre; assay type: cell-based, Propionibacterium acnes; details: compound in DMSO; triplicate
Description: (§6) The first test micro-organism used was Propionibacterium acnes NCTC 737. This is a propionibacterial strain and is the type strain of the […]; it is fully susceptible to antibiotics.
(§7) The propionibacteria were cultured and maintained on Wilkins-Chalgren Anaerobe Medium (agar and broth) at pH 6.0; all cultures were incubated anaerobically at 37° C. for 72 hours.
This is a standard international method for quantitatively assessing the antimicrobial activity of a compound in a liquid medium. The method used a sterile 96-well microtitre plate, capable of holding about 200 μl of liquid per well. The wells contained liquid culture medium and ranges of decreasing concentrations of the relevant test compound in doubling dilutions (eg 1000, 500, 250, 125 . . . μg/ml, etc. down to 0.49 μg/ml). The culture medium was as described above.
The wells were inoculated with a liquid suspension of freshly grown micro-organism and incubated under the conditions described above. After incubation, the microtitre plate was examined visually (with the aid of a light box) for cloudiness in each well, which would indicate microbial growth. The MIC value was recorded as the lowest concentration of test compound required to inhibit microbial growth, ie the lowest concentration for which the liquid in the well remained clear.
The assays included both negative (culture medium with no micro-organisms) and positive (culture medium plus diluting solvent plus micro-organism) controls.
(§8) DDA assays, as described above, were carried out using as the test formulation the gel prepared in Example 2B above. Also tested was the Example 2B gel minus the Klucel™ thickener, which was also subjected to MIC and MBC assays. For the DDAs, which were performed in triplicate, 100 μl of the relevant formulation was loaded onto each disc, and zones of inhibition were recorded after 3 days' anaerobic incubation at 37° C. The MIC and MBC tests were performed in duplicate and the results recorded after 3 days and 7 days respectively, post-subculture onto drug-free medium. […]

C. striatum NCTC 764 [4] = assay: MIC assay; assay type: cell-based, Corynebacterium striatum; details: triplicate
Text: as §1, with “endocarditis. Streptococcus pyogenes is associated with skin, soft tissue, burn and wound infections. S. mutans was cultured and maintained on Wilkins-Chalgren Anaerobe medium+1 g/L glucose (agar and broth); it was incubated in air at 37° C. for 48 hours, at pH 7 (±0.2) with 5% carbon dioxide.” for “endocarditis.”
as §2, §3

S. aureus ATCC 29213 [5] = assay: MBC assay; assay type: cell-based, Staphylococcus aureus; details: Mueller-Hinton broth pH 7.0
Text: as §1, with “endocarditis. Streptococcus pyogenes is associated with skin, soft tissue, burn and wound infections. S. mutans was cultured and maintained on Wilkins-Chalgren Anaerobe medium+1 g/L glucose (agar and broth); it was incubated in air at 37° C. for 48 hours, at pH 7 (±0.2) with 5% carbon dioxide. S. pyogenes was cultured and maintained on Mueller-Hinton medium (broth and agar) and was incubated under the same conditions as S. mutans.” for “endocarditis.”
as §4

C. striatum NCTC 764 [6] = assay: MBC assay; assay type: cell-based, Corynebacterium striatum; details: triplicate
Text: (a) staphylococci. The Staphylococcus aureus strain used was ATCC 29213. S. aureus and other staphylococci are common causes of a wide range of skin, skin structure and wound infections; S. aureus is also known to exacerbate eczema. The ATCC 29213 strain is known to be susceptible to beta-lactam antibiotics such as methicillin. The Staphylococcus epidermidis strain used was NCTC 11047. Staph. epidermidis forms part of the resident flora of skin and is an opportunistic pathogen which can cause biofilms to grow for instance on plastic surgical implants such as catheters. Unless otherwise stated, the staphylococci were cultured and maintained on Mueller-Hinton Medium (agar and broth) at pH 7.2; cultures were incubated aerobically at 37° C. for 19-20 hours, at pH 7 (±0.2). (b) C. striatum NCTC 764. Corynebacterium striatum is closely related to organisms (aerobic diphtheroids of the genus Corynebacterium) that cause body odour. It was cultured and maintained on Mueller-Hinton medium (agar and broth). All cultures were incubated aerobically at 37° C. for 72 hours, at pH 7 (±0.2). (c) streptococci. The strains tested were S. mutans ATCC 25175 and S. pyogenes ATCC 12344. S. mutans is a Gram-positive, microaerophilic bacterium which plays a significant role in dental caries and in infective endocarditis. Streptococcus pyogenes is associated with skin, soft tissue, burn and wound infections. S. mutans was cultured and maintained on Wilkins-Chalgren Anaerobe medium+1 g/L glucose (agar and broth); it was incubated in air at 37° C. for 48 hours, at pH 7 (±0.2) with 5% carbon dioxide. S. pyogenes was cultured and maintained on Mueller-Hinton medium (broth and agar) and was incubated under the same conditions as S. mutans.
(§9) This assay, normally carried out after an MIC assay, determines the minimum concentration of a compound that is lethal to the micro-organism being tested.
These samples were then individually sub-cultured on antibiotic-free agar medium, under the incubation conditions described above. Following incubation they were examined visually for microbial growth. […]

P. acnes NCTC 737 [7] = assay: Minimum bactericidal concentration (MBC) assay; assay type: cell-based, Propionibacterium acnes; details: compound in DMSO; triplicate
Description: as §6, §7, §9
These samples were then individually sub-cultured on antibiotic-free agar medium, under the incubation conditions described above. Following incubation they were examined visually for microbial growth.
DDA assays, as described above, were carried out using as the test formulation the gel prepared in Example 2B above. Also tested was the Example 2B gel minus the Klucel™ thickener, which was also subjected to MIC and MBC assays. For the DDAs, which were performed in triplicate, 100 μl of the relevant formulation was loaded onto each disc, and zones of inhibition were recorded after 3 days' anaerobic incubation at 37° C. The MIC and MBC tests were performed in duplicate and the results recorded after 3 days and 7 days respectively, post-subculture onto drug-free medium.
The compounds copper (II) usnate (Just for Today Ltd), sodium usnate (Yick-Vic Chemicals) and usnic acid (Sigma-Aldrich) were tested against P. acnes NCTC 737, using MIC, MBC and DDA assays as described above. For copper usnate and usnic acid, supplemented DDA assays were also carried out. DMSO was used as the solvent for all three test compounds. For the DDAs, 200 μg of the relevant test compound was loaded onto each disc. The MIC and MBC assays were conducted in triplicate, as were the DDAs for copper usnate.

P. acnes NCTC 737 [8] = assay: Disc diffusion assay (DDA); assay type: cell-based, Propionibacterium acnes; details: 200 μg compound per disc; DMSO
Description: as §6, §7
This is an internationally recognised standard method for qualitatively assessing the antimicrobial activity of a compound.
A sterile paper disc was impregnated with a sample of the test compound in a suitable solvent and 30 minutes allowed for the solvents to evaporate (where possible). The disc was then placed on an agar plate onto which the test micro-organism had been inoculated. The plate was then incubated under the conditions described above, following which it was examined visually for signs of microbial growth. If the test compound had antimicrobial activity, a circular zone of no growth would be obtained around the disc. The diameter of this zone of “inhibition” was measured using a ProtoCOL™ automated zone sizer (Synbiosis, Cambridge, UK). In general, a greater diameter and/or area of the zone of inhibition indicates a greater antimicrobial activity in the relevant test compound, although other factors such as test compound mobility through the agar gel may also influence the result.
as §8

C. striatum NCTC 764 [9] = assay: Disc diffusion assay (DDA); assay type: cell-based, Corynebacterium striatum; details: 200 μg per disc; single plates
Text: as §1, with “streptococci.” for “streptococci. The strains tested were S. mutans ATCC 25175 and S. pyogenes ATCC 12344. S. mutans is a Gram-positive, microaerophilic bacterium which plays a significant role in dental caries and in infective endocarditis.”
as §5

**Q.** For `CC(=O)C1=C([O-])C=C2Oc3c(C(C)=O)c(O)c(C)c(O)c3[C@]2(C)C1=O.[Na+]` [Sodium usnate, sodium usnate], which MIC (S. aureus ATCC 29213 [1]) is on record?
**A.** 7.8 µg/mL

**Q.** And the DDA zone diameter (S. aureus ATCC 29213 [2])?
**A.** 15.0 mm

**Q.** What about the MIC (P. acnes NCTC 737 [3]) of the same compound?
**A.** 0.49 µg/mL

**Q.** What about the MIC (C. striatum NCTC 764 [4]) of the same compound?
**A.** 3.9 µg/mL

**Q.** And the MBC (S. aureus ATCC 29213 [5])?
**A.** 250 µg/mL

**Q.** What about the MBC (C. striatum NCTC 764 [6]) of the same compound?
**A.** 125 µg/mL

**Q.** What about the MBC (P. acnes NCTC 737 [7]) of the same compound?
**A.** 0.98 µg/mL

**Q.** What about the “DDA zone diameter, unsupplemented medium” value (P. acnes NCTC 737 [8]) of the same compound?
**A.** 57.9 mm

**Q.** What about the DDA zone diameter (C. striatum NCTC 764 [9]) of the same compound?
**A.** 20.0 mm
